“Also recorded” adds a separate entry of the source. Like-named read-outs stand apart in the source and are kept apart here.
Assays:
[1] = test system: TNF production in human peripheral blood leucocytes (HPBL); format: cell-based
Protocol: Partially purified buffy coats were purchased from Auckland Blood Centre and divided into 15-ml, aliquots in 50-ml centrifuge tubes (2070 Conical Tubes, Becton Dickinson Labware, N.J., USA). HPBL in tissue culture dishes (10 ml; 10^7 cells/ml) were incubated overnight in α-MEM culture medium supplemented with FCS (10% v/v), streptomycin sulphate (100 μg/ml) and penicillin-G (100 units/ml). All extraction operations were carried out at 7° C. to prevent clotting. Unsupplemented α-MEM medium was added to 30 ml and a 10-ml layer of Ficoll-Paque PLUS was slowly added to the bottom of the tubes. After centrifugation at 300 g for 30 min the upper layer was removed and the HPBL layer was carefully drawn off into a fresh 50-ml centrifuge tube. The volume was adjusted to 50 ml, the cells were centrifuged at 300 g, and HPBL were resuspended in supplemented α-MEM medium and added (1 ml/well) to 24 well plates (Nunc, Kamstrup, Roskilde, Denmark). Agents (made up at twice the final concentration) were added and plates were incubated for the appropriate times in 5% CO2air at 37° C. overnight. DMXAA sodium salt (this laboratory) was dissolved in medium and protected from light FAA (National Cancer Institute, USA) was dissolved in 5% (w/v) sodium bicarbonate and diluted with medium. Interleukin-laipha (R&D Systems, USA), okadaic acid, LPS and deacylated LPS (Sigma Chemical Co., USA) were dissolved in α-MEM, filter-sterilised and used immediately. The MEM-18 mouse anti-human CD14 IgG antibody was obtained from Sanbio bv, am Uden, Netherlands, and was freed from azide before use by ultrafiltration.
After the appropriate incubation period of HPBL with drug, supernatants were either used immediately or stored at −20° C. TNF standards were prepared by making serial dilutions of the TNF stock solution in supplemented culture media (concentration range 10-10,000 pg/ml). ELISA plates were made using the OptEIA Human TNF-alpha Set (Pharmingen, San Diego, Calif., USA). TNF standards and samples were added to the ELISA plates and the assays were carried out according to the makers' directions.

[2] = test system: TNF production in murine leucocytes; test: TNF production in cultured murine leucocytes in vitro (8 h, ELISA); format: cell-based, mouse
Protocol: The effect of DMXAA on cultured murine leucocytes has also been investigated using LPS as a control. TNF was measured by enzyme-linked immunosorbent assay after 8 h.
Blood samples for extraction of leucocytes were taken by cardiac puncture of halothane-anaesthetised mice into 1-ml syringes containing ACD-A anticoagulant (0.1 ml). All extraction operations were carried out at 7° C. to prevent clotting. Samples were pooled and unsupplemented α-MEM was added to 30 ml and a 10-ml layer of Ficoll-Paque PLUS™ was slowly added to the bottom of the tubes. After centrifugation at 300×g for 30 min the upper layer was removed and the leucocyte layer was carefully drawn off into a fresh 50-ml centrifuge tube. The volume was adjusted to 50 ml with unsupplemented growth medium, the cells were centrifuged at 300×g, and the leucocytes were resuspended at 10^7 cells/ml in α-MEM supplemented with foetal bovine serum (10% v/v), streptomycin sulphate (100 μg/ml) and penicillin-G (100 units/ml).
Cells were added either to 24 well plates (1 ml/well; Nunc, Kamstrup, Roskilde, Denmark) or to 100 mm Petri dishes (10 ml/plate) and incubated in 5% CO2/air at 37° C. overnight. Agents (made up at twice the final concentration in growth medium) were added and plates were further incubated for 8 hours. After the appropriate incubation period of HPBL with drug in 24-well plates, supernatants were removed and either assayed immediately or stored at −20° C.
TNF standards were prepared by making serial dilutions of the TNF stock solution in supplemented culture media (concentration range 10-10,000 pg/ml). ELISA (enzyme-linked immunosorbent assay) plates were made using the OptEIA Human TNF-alpha-Set (Pharmingen, San Diego, Calif., USA). TNF standards and samples were added to the ELISA plates and the assays were carried out according to the manufacturer's directions.

[3] = test system: cancer; settings: humans; cited from earlier work
[4] = test system: serum TNF in C57BL mice; test: In vivo serum TNF in mice with or without antibiotic pre-treatment; design: species or system mouse
Protocol: To test the hypothesis that low concentrations of LPS synergise with DMXAA for in vivo TNF production, mice were treated orally with antibiotics for […] and then treated with 25 mg/kg DMXAA. TNF levels were measured […]. C57BL mice were either untreated, or treated for 4 days prior to DMXAA with a mixture of antibiotics (cephalocin 2 g/l and neomycin 2 g/l in the drinking water). Mice received a single i.p. dose of DMXAA (25 mg/kg) and blood was collected by cardiac puncture of halothane-anaesthetised mice after 3 hours. Blood from each mouse was transferred to individual microcentrifuge tubes and allowed to clot overnight on ice before centrifugation at 2000×g for 20 minutes at 4° C. If clotting was not complete the sample was allowed to stand on ice for a further 2 hours, after which it was re-centrifuged. Serum was drawn off the top of the blood samples and stored at −20° C. until assay of TNF content. […] ELISA (enzyme-linked immunosorbent assay) plates were made using the OptEIA Human TNF-alpha-Set (Pharmingen, San Diego, Calif., USA). TNF standards and samples were added to the ELISA plates and the assays were carried out according to the manufacturer's directions.

[5] = cited from earlier work
[6] = test system: murine tumours; settings: cited from earlier work

CCCCCCCCCCCCCC(=O)O[C@@H]1[C@@H](C)[C@@]2(O)[C@@H](C=C(CO)C[C@]3(O)C(=O)C(C)=C[C@@H]23)[C@@H]2C(C)(C)[C@]12OC(C)=O [PMA, phorbol-12-myristate-13-acetate, reference compound]
TNF synthesis ([1]; PMA alone at concentrations higher than 20 ng/ml, HPBL): induced TNF synthesis
TNF induction ([1]; PMA alone at concentrations up to 20 ng/ml, HPBL): no substantial induction of TNF

C=C1[C@@H](O)[C@@H]2O[C@]3(CC[C@H](/C=C/[C@@H](C)[C@@H]4CC(C)=C[C@@]5(O[C@H](C[C@@](C)(O)C(=O)O)CC[C@H]5O)O4)O3)CC[C@H]2O[C@@H]1[C@@H](O)C[C@H](C)[C@H]1O[C@@]2(CCCCO2)CC[C@H]1C [OA, okadaic acid, reference compound]
TNF synthesis ([1]; OA alone at concentrations higher than 20 ng/ml, HPBL): induced TNF synthesis
TNF induction ([1]; OA alone at concentrations up to 20 ng/ml, HPBL): no substantial induction of TNF

Cc1ccc2c(=O)c3cccc(CC(=O)O)c3oc2c1C [DMXAA, 5,6-dimethylxanthenone-4-acetic acid]
TNF production ([2]; DMXAA (800 μg/ml) co-incubated with anti-CD14 antibody (10 μl/well), murine leucocytes (FIG. 7)): high level of TNF production that was even greater than that caused by LPS
TNF production ([2]; DMXAA (800 μg/ml) coincubated with dLPS (500 μg/ml), murine leucocytes (FIG. 7)): significant (p<0.001) elevation of TNF production
TNF production ([2]; DMXAA alone (800 μg/ml), murine leucocytes, 8 h (FIG. 7)): did not significantly increase TNF production
clinical anti-cancer activity [3]: marginal clinical anti-cancer activity
serum TNF ([4]; DMXAA 25 mg/kg i.p. following antibiotic treatment, versus mice not receiving antibiotics (FIG. 8)): increased serum TNF but the increase was significantly smaller (p<0.001)
serum TNF concentrations ([4]; DMXAA 25 mg/kg single i.p. dose, mice not receiving antibiotics (FIG. 8)): substantially increased serum TNF concentrations
water solubility [5]: highly water soluble
antitumour activity [6]: significant antitumour activity
TNF production [1]: large increase in TNF production; also recorded: induced a higher degree of TNF production
induction of TNF by low concentrations of LPS ([1]; DMXAA added to LPS, peripheral blood monocytes): unexpectedly stimulated
induction of TNF by antibody (MEM-18) to CD14 ([1]; DMXAA added to anti-CD14 antibody, peripheral blood monocytes): unexpectedly stimulated
TNF induction ([1]; DMXAA alone, 800 μg/ml, HPBL): no substantial induction of TNF; also recorded: no substantial effect
TNF induction ([1]; DMXAA alone, cultured HPBL, concentration not given): little effect on TNF induction
increase in induction of TNF compared to IL-1 alone ([1]; DMXAA coadministered with IL-1, HPBL (FIG. 4)): up to 56 fold

B1: IL-1: interleukin-1 alpha, inflammatory cytokine (R&D Systems) (protein, UniProt P01583 113-271, looked up)
Interleukin-1 alpha: SAPFSFLSNVKYNFMRIIKYEFILNDALNQSIIRANDQYLTAAALHNLDEAVKFDMGAYKSSKDDAKITVILRISKTQLYVTAQDEDQPVLLKEMPEIPKTITGSETNLLFFWETHGTKNYFTSVAHPNLFIATKQDYWVCLAGGPPSITDFQILENQA
TNF induction ([1]; IL-1 alone, HPBL (FIG. 4)): capable of inducing TNF
